The record followed here is PubChem BioAssay (NCI).

Values joined by “and” are separate entries in the source; they are usually repeats but may differ in a detail not shown here. Equal values may be shown once.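 Test compounds were applied to cells in 96-well plates for 48 hours at 5 doses. GI50 marks 50% less growth. TGI marks complete inhibition of growth.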 Where a SMILES comes first, the peptide text is derived from it. Bridges are numbered along the chain shown (N, C = ends).

Holding throughout (test): NCI anticancer screen, dose series, 48 h
Test [1] deals with NCI-H460 lung.
In test [2] the test system is HOP-62 NSCLC.
The test system of test [3] is HT29 colon.
Test [4] deals with SR leukemia.
In test [5] the test system is 786-0 renal.
The subject of test [6] is SK-MEL-5 melanoma.
In test [7] the test system is UACC-257 melanoma.
Test [8] concerns KM12 colon.
Test [9] relates to MALME-3M melanoma.
The subject of test [10] is HS 578T breast.
Test [11] concerns RPMI-8226 leukemia.

For `COC(=O)c1ccc(C)cc1C1CN=NC12Cc1cccc(C)c1C2=O` (stereo not given), the TGI is over 100 µM in test [1]; over 100 µM in test [2]; over 100 µM in test [3]; over 100 µM in [4]; over 100 µM in [5]; 47.6 µM in test [6]. Also, the TGI in test [7] is 66 µM; in test [8] it was 72.5 µM; in test [9], 96.6 µM; in test [10], over 100 µM; in [11], 49.8 µM.

Take `COc1ccc(/C=C/C(=O)c2cc(CN(C)C)c(O)c(CN(C)C)c2)cc1`: the TGI in [1] was 49.3 µM; in test [2] it was 56.1 µM; in test [3], over 100 µM; in test [4] it was over 100 µM; in test [5], over 100 µM; in [6] it was 32.4 µM. The TGI was 38.8 µM in test [7]; 37.4 µM in test [8]; 54.2 µM in test [9]; over 100 µM in [10]; over 100 µM in test [11].

As for `O=C(NC1=C(Cl)C(=O)c2ccccc2C1=O)C(=O)c1c(O)c2ccccc2oc1=O`, the TGI in test [1] stood at 7.68 µM; in test [2], 18.8 µM; in [3], 12.8 µM; in test [4], 80.6 µM; in test [5], 19 µM; in [6], 1.6 µM. Besides, the TGI in [7] is 3.17 µM; in test [8], 31.3 µM; in test [9], 2.7 µM; in [10] it was over 65 µM; in [11] it was 30.3 µM.

For `C#CC(O)/C=C/C(O)CCCC(O)CC#CC(O)C#CCCCCC(O)/C=C/CCCC(=O)CCCCCCCCCCCCCCCC(O)C(O)C#CC(=O)O` (stereo not given), the TGI in test [1], in [2], in test [3], in test [4], in [5] and in test [6] was over 25 µM each time. Further, the TGI in test [7], in test [8], in test [9], in test [10] and in test [11] was over 25 µM each time.

Take `Oc1ccc(Nc2nc(Cl)c3[nH]cnc3n2)cc1`: the TGI in test [1], in test [2], in test [3], in test [4], in test [5] and in [6] was over 100 µM each time. Also, the TGI in test [7], in [8], in test [9], in test [10] and in test [11] was over 100 µM each time.

Turning to `C=CCN1C(=O)C[C@H](Cc2ccccc2)NC(=O)C[C@H](Cc2ccccc2)N(CC=C)C(=O)C[C@H](Cc2ccccc2)NC(=O)C[C@@H]1Cc1ccccc1`, the TGI in test [1], in test [2], in [3], in test [4], in test [5] and in test [6] was over 100 µM in each case. Also, the TGI in test [7] is over 100 µM; in test [8] it was over 100 µM; in [9] it was 50.6 µM; in test [10], over 100 µM; in [11], 9.66 µM.

In the case of `O=C(Oc1cncc(Cl)c1)c1cc2ccccc2sc1=O`, the TGI in test [1] was over 100 µM; in [2], over 100 µM; in [3] it was over 100 µM; in test [4], 76.8 µM; in [5], over 100 µM; in test [6], over 100 µM. Moreover, the TGI in [7], in test [8], in [9], in test [10] and in test [11] was over 100 µM throughout.

Consider `CCN(CC)CC[n+]1ccc2c(C)c3[nH]c4ccccc4c3c(C)c2c1`, for which the GI50 was 0.332 µM in test [1]; 0.416 µM in test [3]; 0.239 µM in test [6]; 0.633 µM in test [7]; 0.374 µM in test [9]; under 0.0471 µM in test [11]. For the same compound, the TGI in test [1] is 2.31 µM and 2.16 µM and 1.01 µM; in [2] it was 3.46 µM and 7.99 µM and 4.74 µM; in test [3], 3.82 µM and 4.45 µM and 4.46 µM; in test [4] it was 3.01 µM; in test [5] it was 5.96 µM; in test [6], 1.57 µM and 1.28 µM and 2.45 µM. Also, the TGI was 2.07 µM and 2.59 µM and 1.99 µM in test [7]; 2.39 µM and 1.45 µM and 2.76 µM in test [8]; 1.92 µM and 2.27 µM and 1.15 µM in [9]; 0.933 µM in test [10]; 4.87 µM and 0.536 µM and 2.95 µM in test [11].

As for `CC(=O)N1CCOC12N=NC(C)(C)O2` (stereo not given), the TGI in [1], in test [2], in [3], in test [4], in test [5] and in [6] was over 100 µM throughout. For the same compound, the TGI in test [7], in test [8], in test [9], in test [10] and in [11] was over 100 µM in each case.

Consider `C/C(CC(O)(C(F)(F)F)C(F)(F)F)=N\O`, for which the TGI in test [1], in test [2], in test [3], in test [4], in test [5] and in test [6] was over 10 µM in each case. Moreover, the TGI in test [7], in [8], in [9], in test [10] and in [11] was over 10 µM throughout.

Turning to `Cc1cccc(NC(=S)Nc2cccc(Cl)c2)n1`, the TGI in test [1], in [2], in test [3], in test [4], in test [5] and in test [6] was over 100 µM each time. Further, the TGI in test [7], in test [8], in test [9], in [10] and in test [11] was over 100 µM in each case.

Turning to `O=C1CC(c2cccc([N+](=O)[O-])c2)C2(C(=O)NC(=S)NC2=O)C(c2cccc([N+](=O)[O-])c2)C1` (stereo not given), the TGI in test [1], in test [2], in test [3], in test [4], in [5] and in [6] was over 100 µM throughout. In addition, the TGI was over 100 µM in test [7]; over 100 µM in [8]; 53.2 µM in [9]; 84.3 µM in [10]; over 100 µM in test [11].

As to `C[C@H](CCc1nc(C#N)c(N)o1)[C@H]1CC[C@H]2[C@@H]3CCC4C[C@@H](O)CC[C@]4(C)[C@H]3C[C@@H](O)[C@]12C` (stereo not given in full), the TGI in [1] came to 31.3 µM; in test [2] it was 40.8 µM; in test [3] it was 27.7 µM; in test [4], 29 µM; in [5], 24 µM; in [6] it was 29.5 µM. Further, the TGI in test [7] is 20.4 µM; in test [8], 28.2 µM; in [9] it was 28.4 µM; in test [10], 31.6 µM; in test [11] it was 6.05 µM.

On to `COC1(C)CCC(OS(C)(=O)=O)CO1` (stereo not given), for which the TGI in test [1], in test [2], in test [3], in test [4], in test [5] and in test [6] was over 100 µM each time. Also, the TGI in test [7], in test [8], in [9], in [10] and in [11] was over 100 µM each time.

Turning to `COC(=O)C1CCC(=O)NCCCCC(NC(=O)C(N)CC(=O)O)C(=O)N1` (stereo not drawn) (H-Asp-Lys-Glu-OMe; lactam 2-3; configuration not given here), the TGI in test [1], in test [2], in [3], in [4], in [5] and in [6] was over 100 µM throughout. Besides, the TGI in test [7], in [8], in [9], in test [10] and in test [11] was over 100 µM in each case.

Regarding `CC1=NN(c2ccccc2)C(=O)/C1=C\c1c(C)[nH]n(-c2ccccc2)c1=O`, the TGI in test [1], in test [2], in [3], in [4], in [5] and in test [6] was over 100 µM throughout. Further, the TGI in [7] was over 100 µM; in test [8] it was over 100 µM; in test [9], over 100 µM; in test [10] it was over 100 µM; in test [11], 83.3 µM.

As to `COc1ccc(-c2csc3c2[N+]2(C)C=CC=C2C3N2CCCC2)cc1` (stereo not given), the TGI was 46.8 µM in test [1]; over 100 µM in [2]; 43 µM in test [3]; 35.4 µM in test [4]; over 100 µM in test [5]; 28.8 µM in test [6]. Further, the TGI was 93.5 µM in test [7]; 34.9 µM in test [8]; 50.5 µM in test [9]; 98.6 µM in [10]; over 100 µM in test [11].

`COC1OC(C)/C(=N/O)C2OC(C)(C)OC12` (stereo not given): the TGI in test [1], in [2], in test [3], in [4], in test [5] and in [6] was over 100 µM throughout. The TGI in test [7], in test [8], in [9], in test [10] and in test [11] was over 100 µM throughout.

As to `O=C(NNC(=O)c1ccc(Cl)cc1NC(=O)C12CC3CC(CC(C3)C1)C2)c1ccc(Cl)cc1`, the TGI in test [1] was found to be 66.3 µM; in test [2], 44.4 µM; in test [3], 77 µM; in test [4] it was 63.8 µM; in test [5], 56.1 µM; in test [6], 36.5 µM. The TGI in [7] is 66.1 µM; in [8], 54.4 µM; in test [9], 38.5 µM; in test [10] it was 46.6 µM; in test [11] it was 38.4 µM.

As to `O=C(O)c1c(CC(Cc2ccccc2)C(=O)O)ccc2c1CCC2` (stereo not given), the TGI in test [1], in test [2], in test [3], in test [4], in [5] and in test [6] was over 100 µM in each case. Moreover, the TGI in test [7], in test [8], in test [9], in test [10] and in [11] was over 100 µM each time.

As for `CN1CCC(O)(OC(=O)C(c2ccccc2)C2(O)CCCC2)CC1` (stereo not given), the TGI in [1], in [2], in [3], in [4], in test [5] and in test [6] was over 100 µM throughout. The TGI in [7], in test [8], in test [9], in test [10] and in test [11] was over 100 µM in each case.

With `C#CCn1c(I)cc2c(c1=O)COC(=O)[C@]2(O)CC`, the TGI in test [1], in test [2], in test [3], in test [4], in [5] and in [6] was over 100 µM each time. The TGI in test [7], in [8], in [9], in [10] and in test [11] was over 100 µM throughout.

`CC(C)(C)c1cc(C(C)(C)C)c(SC2OC(CO)C(O)C(O)C2O)c(O)c1O` (stereo not given): the TGI was 10.5 µM in test [1]; 33.9 µM in test [2]; 24.5 µM in [3]; over 53 µM in [4]; 30.4 µM in [5]; 18.6 µM in test [6]. Further, the TGI in [7] is over 72.6 µM; in test [8], 20.8 µM; in [9], 26.9 µM; in test [10], 11.6 µM; in [11], 76.1 µM.

`O=[N+]([O-])/C(Cl)=C(\NCCO)C(Cl)=C(Cl)Cl`: the TGI in test [1] was over 100 µM; in test [2], over 100 µM; in test [3], over 100 µM; in test [4], 49.2 µM; in test [5], 73.8 µM; in test [6], over 100 µM. Besides, the TGI is over 100 µM in test [7]; over 100 µM in test [8]; 65 µM in test [9]; over 91.5 µM in [10]; 40.5 µM in [11].
